These are literature values, as cited in patent US20160310758A1, “SYSTEMS AND METHODS FOR PHOTOACTIVATING A PHOTOSENSITIZER APPLIED TO AN EYE” (Avedro, Inc., priority 2015, published 2016).

Series [1] relates to bacteria. As to conditions: D2O by itself, without photosensitizer; Skladnev et al. 1996.
For series [2] the following is noted: non-ionic permeability enhancer in riboflavin formulations.

`[2H]O[2H]` [D2O, deuterated water]: in series [1], the killing of bacteria entry is reported as “does not kill bacteria”.

For the molecule “Polyoxyethylene (9) lauryl ether [Polidocanol]”, the HLB number entry in series [2] is “approximately 13.6”.
